Here are results for seven compounds from US12247032B2, “Substituted pyrazolo[1,5-a]pyrimidines as inhibitors of JAK kinases” (Genentech, Inc., priority 2019, dated 2025).

SMILES strings stand for the structures.

Assay [1] deals with T1, Recombinant human JAK2 kinase domain protein (Residues 812-1132) (Homo sapiens, UniProt O60674).
T1 construct: human JAK2 kinase domain protein (Residues 812-1132); made in house; host or cells: insect cells
Briefly: JAK2 biochemical assay (microfluidic mobility shift, peptide phosphorylation). As to conditions: 25 μM ATP, 0.2 nM total JAK2; Ki calculated from Ki app (tight-binding, competitive); read-out: Biochem JAK2 Ki. The essentials: (§1)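 Insect-cell-expressed human JAK1 (1 nM, residues 854-1154) or JAK2 (0.2 nM, residues 812-1132) phosphorylating 1.5 μM 5-FAM peptide Y-1B with 25 μM ATP, pH 7.2 HEPES, 30 min at 22-23 °C; twelve concentrations up to 1000 nM in duplicate. Mobility-shift % conversion fitted to tight-binding quadratic for Ki^app.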

In assay [2] the target is T2, recombinant human JAK1 kinase domain protein (Residues 854-1154) (Homo sapiens, UniProt P23458).
T2 construct: human JAK1 kinase domain protein (Residues 854-1154); purchased Proteros Biostructures GmbH (Martinsried, Germany); host or cells: insect cells
T2 sequence (P23458 854-1154): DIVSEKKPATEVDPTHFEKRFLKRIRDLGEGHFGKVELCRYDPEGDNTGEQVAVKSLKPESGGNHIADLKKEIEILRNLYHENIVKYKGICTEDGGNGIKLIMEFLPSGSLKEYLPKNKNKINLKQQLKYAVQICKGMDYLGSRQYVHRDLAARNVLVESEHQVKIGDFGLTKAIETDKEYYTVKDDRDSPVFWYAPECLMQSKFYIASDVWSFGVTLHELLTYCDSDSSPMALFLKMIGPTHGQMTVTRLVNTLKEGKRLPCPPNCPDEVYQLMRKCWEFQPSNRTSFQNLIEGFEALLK
The assay can be described thus: JAK1 biochemical assay (microfluidic mobility shift, peptide phosphorylation). As to conditions: 25 μM ATP, 1 nM total JAK1; Ki calculated from Ki app (tight-binding, competitive); read-out: Biochem JAK1 Ki. In short, it runs like this: as §1

For assay [3], the system named is JAK1 (IL-13-stimulated STAT6 phosphorylation in BEAS-2B cells). The assay can be described thus: P-STAT6 BEAS-2B+IL-13 cell assay. In kind it is cell-based, human. As to conditions: Homo sapiens, BEAS-2B, 1 h, 1 hour compound, IL-13 15 minutes, IC50 by four-parameter fit, read-out: Cellular JAK1 PSTAT6 BEAS2B + IL13. In short, it runs like this: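 BEAS-2B human bronchial epithelial cells preincubated 1 h at 37 °C with compound, then stimulated with human recombinant IL-13 for 15 min. Phospho-STAT6 (Tyr641) in lysates measured by MSD electrochemiluminescence immunoassay; IC50 from a four-parameter logistic fit of percent of control.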

T1 sequence (O60674 812-1132): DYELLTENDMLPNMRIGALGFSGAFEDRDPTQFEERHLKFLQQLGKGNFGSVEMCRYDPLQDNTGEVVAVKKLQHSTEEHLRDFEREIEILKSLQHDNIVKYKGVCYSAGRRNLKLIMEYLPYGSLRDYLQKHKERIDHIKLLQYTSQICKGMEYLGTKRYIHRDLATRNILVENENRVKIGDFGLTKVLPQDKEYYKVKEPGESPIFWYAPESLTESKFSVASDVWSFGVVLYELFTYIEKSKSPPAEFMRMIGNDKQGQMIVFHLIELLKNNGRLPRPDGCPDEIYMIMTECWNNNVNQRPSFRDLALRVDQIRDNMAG

For `CN(C)CCCN1CC(n2nnnc2Cn2cc(NC(=O)c3cnn4cccnc34)c(-c3cc(OC(F)F)ccc3OC(F)F)n2)C1` [Example 65, N-[3-[2,5-bis(difluoromethoxy)phenyl]-1-[[1-[1-[3-(dimethylamino)propyl]azetidin-3-yl]tetrazol-5-yl]methyl]pyrazol-4-yl]pyrazolo[1,5-a]pyrimidine-3-carboxamide], the values for the Ki in assay [1] and in assay [2] were 0.38 nM and 0.41 nM, respectively. The IC50 in assay [3] was 660 nM.
For `CN(C)C1CCC(n2nnc(Cn3cc(NC(=O)c4cnn5cccnc45)c(-c4cc(OC(F)F)ccc4OC(F)F)n3)n2)CC1` (stereo not drawn) [Example 66, N-[3-[2,5-bis(difluoromethoxy)phenyl]-1-[[2-[4-(dimethylamino)cyclohexyl]tetrazol-5-yl]methyl]pyrazol-4-yl]pyrazolo[1,5-a]pyrimidine-3-carboxamide], in that order: 0.3 nM, 0.41 nM and 32 nM.
Regarding `NC1CCC(n2nnnc2Cn2cc(NC(=O)c3cnn4cccnc34)c(-c3cc(OC(F)F)ccc3OC(F)F)n2)CC1` (stereo not drawn) [Example 69, N-[1-[[1-(4-aminocyclohexyl)tetrazol-5-yl]methyl]-3-[2,5-bis(difluoromethoxy)phenyl]pyrazol-4-yl]pyrazolo[1,5-a]pyrimidine-3-carboxamide], the Ki was 0.97 nM in assay [1] and 0.75 nM in assay [2]. Moreover, in assay [3], the IC50 is no less than 1000 nM.
For `CN(C)[C@H]1C[C@@H](N2CC(n3nnc(Cn4cc(NC(=O)c5cnn6cccnc56)c(-c5cc(OC(F)F)ccc5OC(F)F)n4)n3)C2)C1` [Example 71, N-[3-[2,5-bis(difluoromethoxy)phenyl]-1-[[2-[1-[3-(dimethylamino)cyclobutyl]azetidin-3-yl]tetrazol-5-yl]methyl]pyrazol-4-yl]pyrazolo[1,5-a]pyrimidine-3-carboxamide] the same measures were 1.1 nM, 1.4 nM and 23 nM.
For `CN(C)C(C)(C)CCN1CC(n2nnc(Cn3cc(NC(=O)c4cnn5cccnc45)c(-c4cc(OC(F)F)ccc4OC(F)F)n3)n2)C1` [Example 77, N-[3-[2,5-bis(difluoromethoxy)phenyl]-1-[[2-[1-[3-(dimethylamino)-3-methyl-butyl]azetidin-3-yl]tetrazol-5-yl]methyl]pyrazol-4-yl]pyrazolo[1,5-a]pyrimidine-3-carboxamide] the same measures were 0.39 nM, 0.38 nM and 110 nM.
For `CC(C)Sc1ccc(OC(F)F)c(-c2nn(Cc3nnn(C4CN(C5CCN(C)CC5)C4)n3)cc2NC(=O)c2cnn3cccnc23)c1` [Example 79, N-[3-[2-(difluoromethoxy)-5-isopropylsulfanyl-phenyl]-1-[[2-[1-(1-methyl-4-piperidyl)azetidin-3-yl]tetrazol-5-yl]methyl]pyrazol-4-yl]pyrazolo[1,5-a]pyrimidine-3-carboxamide], in that order: 0.44 nM, 0.5 nM and 40 nM.
As for `CN(C)C1(CCN2CC(n3nnc(Cn4cc(NC(=O)c5cnn6cccnc56)c(-c5cc(OC(F)F)ccc5OC(F)F)n4)n3)C2)CC1` [Example 80, N-[3-[2,5-bis(difluoromethoxy)phenyl]-1-[[2-[1-[2-[1-(dimethylamino)cyclopropyl]ethyl]azetidin-3-yl]tetrazol-5-yl]methyl]pyrazol-4-yl]pyrazolo[1,5-a]pyrimidine-3-carboxamide; formic acid], the Ki in assay [1] was 0.41 nM; in assay [2], 0.46 nM. The IC50 in assay [3] is 40 nM.
